Source: the NIST ThermoML archive (doi:10.1016/j.fluid.2015.10.026)
Numbers after ± are expanded uncertainties.

Conditions: Liquid, Brillouin light scattering

CCOC(C)(C)C [2-ethoxy-2-methylpropane]
Conditions	speed of sound [m/s]
293.15 K, 10 kPa	1059.2 ± 5.4
293.15 K, 1000 kPa	1060.3 ± 5.4
293.15 K, 2500 kPa	1070.5 ± 5.5
293.15 K, 4000 kPa	1080.8 ± 5.5
293.15 K, 5500 kPa	1091.1 ± 5.5
293.15 K, 7000 kPa	1101.5 ± 5.6
293.15 K, 8500 kPa	1111.9 ± 5.7
293.15 K, 10000 kPa	1122.4 ± 5.7
303.15 K, 10 kPa	1013 ± 5.2
303.15 K, 1000 kPa	1019.4 ± 5.2
303.15 K, 2500 kPa	1030.3 ± 5.2
303.15 K, 4000 kPa	1041.2 ± 5.3
303.15 K, 5500 kPa	1052 ± 5.4
303.15 K, 7000 kPa	1062.8 ± 5.4
303.15 K, 8500 kPa	1073.5 ± 5.5
303.15 K, 10000 kPa	1084.2 ± 5.5
313.15 K, 10 kPa	967.71 ± 6.7
313.15 K, 1000 kPa	978.21 ± 5
313.15 K, 2500 kPa	989.92 ± 5.1
313.15 K, 4000 kPa	1001.5 ± 5.1
313.15 K, 5500 kPa	1012.9 ± 5.2
313.15 K, 7000 kPa	1024.2 ± 5.2
313.15 K, 8500 kPa	1035.3 ± 5.3
313.15 K, 10000 kPa	1046.3 ± 5.3
323.15 K, 20 kPa	923.32 ± 5.7
323.15 K, 1000 kPa	936.6 ± 4.8
323.15 K, 2500 kPa	949.23 ± 4.9
323.15 K, 4000 kPa	961.61 ± 4.9
323.15 K, 5500 kPa	973.77 ± 5
323.15 K, 7000 kPa	985.68 ± 5
323.15 K, 8500 kPa	997.36 ± 5.1
323.15 K, 10000 kPa	1008.8 ± 5.2
333.15 K, 40 kPa	879.69 ± 5.8
333.15 K, 1000 kPa	894.61 ± 4.6
333.15 K, 2500 kPa	908.27 ± 4.7
333.15 K, 4000 kPa	921.59 ± 4.7
333.15 K, 5500 kPa	934.59 ± 4.8
333.15 K, 7000 kPa	947.25 ± 4.9
333.15 K, 8500 kPa	959.59 ± 4.9
333.15 K, 10000 kPa	971.59 ± 5
343.15 K, 60 kPa	836.71 ± 6.2
343.15 K, 1000 kPa	852.23 ± 4.4
343.15 K, 2500 kPa	867.04 ± 4.5
343.15 K, 4000 kPa	881.42 ± 4.5
343.15 K, 5500 kPa	895.38 ± 4.6
343.15 K, 7000 kPa	908.92 ± 4.7
343.15 K, 8500 kPa	922.03 ± 4.8
343.15 K, 10000 kPa	934.71 ± 4.8
353.15 K, 90 kPa	794.25 ± 4.1
353.15 K, 1000 kPa	809.46 ± 4.2
353.15 K, 2500 kPa	825.54 ± 4.3
353.15 K, 4000 kPa	841.11 ± 4.3
353.15 K, 5500 kPa	856.15 ± 4.4
353.15 K, 7000 kPa	870.68 ± 4.5
353.15 K, 8500 kPa	884.68 ± 4.6
353.15 K, 10000 kPa	898.16 ± 4.6
363.15 K, 130 kPa	752.18 ± 3.9
363.15 K, 1000 kPa	766.3 ± 4
363.15 K, 2500 kPa	783.78 ± 4.1
363.15 K, 4000 kPa	800.64 ± 4.1
363.15 K, 5500 kPa	816.89 ± 4.2
363.15 K, 7000 kPa	832.52 ± 4.3
363.15 K, 8500 kPa	847.54 ± 4.4
363.15 K, 10000 kPa	861.94 ± 4.5
373.15 K, 180 kPa	710.37 ± 3.7
373.15 K, 1000 kPa	722.76 ± 3.8
373.15 K, 2500 kPa	741.75 ± 3.9
373.15 K, 4000 kPa	760.03 ± 4
373.15 K, 5500 kPa	777.6 ± 4
373.15 K, 7000 kPa	794.46 ± 4.2
373.15 K, 8500 kPa	810.61 ± 4.2
373.15 K, 10000 kPa	826.04 ± 4.3
383.15 K, 250 kPa	668.66 ± 3.6
383.15 K, 1000 kPa	678.84 ± 3.6
383.15 K, 2500 kPa	699.46 ± 3.7
383.15 K, 4000 kPa	719.28 ± 3.8
383.15 K, 5500 kPa	738.29 ± 3.9
383.15 K, 7000 kPa	756.49 ± 4
383.15 K, 8500 kPa	773.88 ± 4.1
383.15 K, 10000 kPa	790.47 ± 4.1
393.15 K, 340 kPa	626.87 ± 3.4
393.15 K, 1000 kPa	634.52 ± 3.4
393.15 K, 2500 kPa	656.9 ± 3.5
393.15 K, 4000 kPa	678.37 ± 3.6
393.15 K, 5500 kPa	698.94 ± 3.7
393.15 K, 7000 kPa	718.61 ± 3.8
393.15 K, 8500 kPa	737.37 ± 3.9
393.15 K, 10000 kPa	755.23 ± 4
403.15 K, 440 kPa	584.83 ± 3.1
403.15 K, 1000 kPa	589.82 ± 3.2
403.15 K, 2500 kPa	614.07 ± 3.3
403.15 K, 4000 kPa	637.32 ± 3.4
403.15 K, 5500 kPa	659.57 ± 3.5
403.15 K, 7000 kPa	680.82 ± 3.6
403.15 K, 8500 kPa	701.07 ± 3.7
403.15 K, 10000 kPa	720.33 ± 3.8
413.15 K, 570 kPa	542.3 ± 3
413.15 K, 1000 kPa	544.74 ± 3
413.15 K, 2500 kPa	570.98 ± 3.1
413.15 K, 4000 kPa	596.12 ± 3.2
413.15 K, 5500 kPa	620.17 ± 3.3
413.15 K, 7000 kPa	643.12 ± 3.5
413.15 K, 8500 kPa	664.98 ± 3.6
413.15 K, 10000 kPa	685.74 ± 3.7
423.15 K, 730 kPa	499.06 ± 2.9
423.15 K, 2500 kPa	527.62 ± 2.9
423.15 K, 4000 kPa	554.78 ± 3
423.15 K, 5500 kPa	580.74 ± 3.1
423.15 K, 7000 kPa	605.52 ± 3.3
423.15 K, 8500 kPa	629.1 ± 3.4
423.15 K, 10000 kPa	651.49 ± 3.5
